Laboratory results: EPA's ToxValDB 9.5 (doi:10.2903/j.efsa.2016.4406)
Converted amounts (≈) assume the structure as drawn.

Key:
Pimephales promelas = details: chronic/long-term; duration: 266 days; reproduction
Colinus virginianus = details: for LD50: acute, oral, mortality
Chironomus tentans = details: chronic/long-term; duration: 24 days
Tagia sp. = details: chronic/long-term; growth
Apis mellifera = details: acute, mortality
Neomysis kadiakensis = details: chronic/long-term; duration: 28 days; reproduction
Folsomia candida = details: chronic/long-term; mortality
Rattus norvegicus = details: for LD50: acute, mortality
Oncorhynchus mykiss = details: acute, mortality
Daphnia magna = details: chronic/long-term; duration: 21 days; reproduction

CSC1=N[C@@](C)(c2ccccc2)C(=O)N1Nc1ccccc1 [(S)-1-Anilino-4-methyl-2-methylthio-4-phenylimidazolin-5-one]
NOEC (Pimephales promelas): 0.07 mg/L | LD50 (Colinus virginianus; diet): > 1070 mg/kg | LD50 (Colinus virginianus): > 2000 mg/kg | NOEL (Colinus virginianus; chronic, reproduction): 133 mg/kg-day | NOEC (Chironomus tentans): 0.05 mg/L | NOEC (Tagia sp.): 0.63 mg/kg | LD50 (Apis mellifera; dermal): 25.7 µg/piece | LD50 (Apis mellifera; oral, unspecified): > 93.3 µg/piece | NOEC (Neomysis kadiakensis): 0.0095 mg/L | NOEC (Folsomia candida): 2.26 mg/kg | LD50 (Rattus norvegicus): > 2030 mg/kg | NOAEL (Rattus norvegicus; chronic, body weight): 3.9 mg/kg-day | LC50 (Oncorhynchus mykiss; duration: 96 hours): 0.74 µg/mL (≈ 2.38 µM)

CSC1=N[C@@](C)(c2ccccc2)C(=O)N1
LD50 (Colinus virginianus; diet): 723 mg/kg | NOEC (Daphnia magna): 16 mg/L | NOEC (Tagia sp.): 100 mg/kg | NOEC (Folsomia candida): 250 mg/kg | LD50 (Rattus norvegicus): 176 mg/kg | LC50 (Oncorhynchus mykiss): > 98 µg/mL

CC1(c2ccccc2)NC(=O)NC1=O (configuration not stated) [5-Methyl-5-phenylhydantoin]
LD50 (Colinus virginianus; diet): > 2500 mg/kg | LD50 (Rattus norvegicus; oral): 1520 mg/kg | NOAEL (Rattus norvegicus; subchronic, duration: 90 days, oral): 6.4 mg/kg-day
